# In patent US12098144B2, “Piperazine indazole glucocorticoid receptor antagonists” (Corcept Therapeutics Incorporated, priority 2021, dated 2024):
# pIC50, pKi: −log10 of the molar value.
# Assays:
# glucocorticoid receptor [1] = target: T1, glucocorticoid receptor (Homo sapiens, UniProt P04150); test: Hep G2 TAT IC50: inhibition of dexamethasone-induced TAT in HepG2 cells (384 well); format: cell-based
# T1 construct: endogenous in cells; ATCC cat
# T1 sequence (P04150 1-777): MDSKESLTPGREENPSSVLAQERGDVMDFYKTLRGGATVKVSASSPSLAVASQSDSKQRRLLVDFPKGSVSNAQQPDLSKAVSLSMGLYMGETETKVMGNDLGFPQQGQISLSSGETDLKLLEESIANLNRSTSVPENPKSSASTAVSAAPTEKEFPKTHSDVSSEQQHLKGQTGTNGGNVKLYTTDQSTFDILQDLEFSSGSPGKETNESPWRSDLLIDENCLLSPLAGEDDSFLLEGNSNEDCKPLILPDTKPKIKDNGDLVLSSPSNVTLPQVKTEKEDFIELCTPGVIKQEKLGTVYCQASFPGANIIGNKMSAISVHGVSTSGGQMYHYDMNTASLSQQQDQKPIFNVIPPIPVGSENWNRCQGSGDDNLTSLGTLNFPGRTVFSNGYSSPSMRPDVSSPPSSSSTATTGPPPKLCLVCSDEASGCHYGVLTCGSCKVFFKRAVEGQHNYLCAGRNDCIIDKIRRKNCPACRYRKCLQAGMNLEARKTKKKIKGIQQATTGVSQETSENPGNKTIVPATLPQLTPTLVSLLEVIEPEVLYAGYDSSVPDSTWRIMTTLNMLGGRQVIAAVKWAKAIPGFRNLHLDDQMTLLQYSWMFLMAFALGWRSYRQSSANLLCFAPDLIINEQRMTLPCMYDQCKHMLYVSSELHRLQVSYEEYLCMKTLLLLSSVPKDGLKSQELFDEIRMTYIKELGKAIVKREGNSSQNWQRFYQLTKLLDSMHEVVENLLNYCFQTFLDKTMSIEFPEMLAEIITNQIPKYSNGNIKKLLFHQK
# Method: Glucocorticoid mediated activation of TAT occurs by transactivation of glucocorticoid response elements in the TAT promoter by glucocorticoid receptor/agonist complex.
# HepG2 cells were cultured using MEME media supplemented with 10% (v/v) foetal bovine serum, 2 mM L-glutamine, 1% (v/v) NEAA, and 1% (v/v) penstrep, at 37° C., 5%/95% (v/v) CO2/air.
# Compounds were diluted from a 10 mM stock via an Echo Acoustic liquid handler into 10 μL assay media to generate a 10-point half-log dilution curve.
# HepG2 cells were then lysed with 8 μL of cell lysis buffer containing a protease inhibitor cocktail for 15 minutes at 25° C. […] After a 2-hour incubation at 37° C. the reaction was terminated by the addition of 8 μL of 5 M aqueous potassium hydroxide solution, and the plates incubated for a further 30 minutes at 37° C.
# [compound] and fitting the data to a 4-parameter logistic equation.
# glucocorticoid receptor [2] = target: T1, glucocorticoid receptor; test: Hep G2 TAT Ki: inhibition of dexamethasone-induced TAT in HepG2 cells (96 well); format: cell-based; conditions: challenge of 100 nM dexamethasone, IC50 converted to Ki by Cheng and Prusoff equation
# Summary of the method: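 Cells lysed 15 min at 4 °C; TAT enzyme reaction 2 h at 37 °C, stopped with KOH, 30 min further at 37 °C. Inhibition fitted to 4-parameter logistic.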
pIC50 (glucocorticoid receptor [1]),pKi (glucocorticoid receptor [2]),SMILES
6.08,,"Cc1cc2c(cnn2-c2ccc(F)cc2)cc1C1CN(S(=O)(=O)c2cccnn2)CCN1CCC(F)(F)F (single isomer, unassigned) [Example 176, 1-(4-fluorophenyl)-6-methyl-5-(4-pyridazin-3-ylsulfonyl-1-(3,3,3-trifluoropropyl)piperazin-2-yl)indazole]"
5.61,,"Cc1cc2c(cnn2-c2ccc(F)cc2)cc1C1CN(S(=O)(=O)N2CCOCC2)CCN1CCC(F)(F)F (single isomer, unassigned) [Example 177, 4-(3-(1-(4-fluorophenyl)-6-methyl-indazol-5-yl)-4-(3,3,3-trifluoropropyl)piperazin-1-yl)sulfonylmorpholine]"
,7.40,"Cc1cc2c(cnn2-c2ccc(F)cc2)cc1C1CN(S(=O)(=O)c2ccn(C)n2)CCN1CC(C)C (stereo not shown) [Example 42, 1-(4-fluorophenyl)-5-(1-isobutyl-4-((1-methyl-1H-pyrazol-3-yl)sulfonyl)piperazin-2-yl)-6-methyl-1H-indazole]"
,7.12,"Cc1cc2c(cnn2-c2ccc(F)cc2)cc1C1CN(S(=O)(=O)c2cncc(F)c2)CCN1CC(C)C (stereo not shown) [Example 43, 1-(4-fluorophenyl)-5-(4-((5-fluoropyridin-3-yl)sulfonyl)-1-isobutylpiperazin-2-yl)-6-methyl-1H-indazole]"
,7.03,"Cc1cc2c(cnn2-c2ccc(F)cc2)cc1C1CN(S(=O)(=O)C2CCOCC2)CCN1CC(C)C (stereo not shown) [Example 44, 1-(4-fluorophenyl)-5-(1-isobutyl-4-((tetrahydro-2H-pyran-4-yl)sulfonyl)piperazin-2-yl)-6-methyl-1H-indazole]"
,6.43,"Cc1cc2c(cnn2-c2ccc(F)cc2)cc1C1CN(C(=O)C(C)O)CCN1CC(C)C (stereo not shown) [Example 65, 1-(3-(1-(4-fluorophenyl)-6-methyl-1H-indazol-5-yl)-4-isobutylpiperazin-1-yl)-2-hydroxypropan-1-one]"
,6.59,"CC(=O)N1CCN(CC(C)C)C(c2cc3cnn(-c4ccc(F)cc4)c3cc2C)C1 (stereo not shown) [Example 66, 1-(3-(1-(4-fluorophenyl)-6-methyl-1H-indazol-5-yl)-4-isobutylpiperazin-1-yl)ethan-1-one]"
,6.41,"Cc1cc2c(cnn2-c2ccc(F)cc2)cc1C1CN(C(=O)c2cnn(C)n2)CCN1CC(C)C (stereo not shown) [Example 67, (3-(1-(4-fluorophenyl)-6-methyl-1H-indazol-5-yl)-4-isobutylpiperazin-1-yl)(2-methyl-2H-1,2,3-triazol-4-yl)methanone]"
,7.24,"Cc1cc2c(cnn2-c2ccc(F)cc2)cc1C1CN(S(=O)(=O)c2cnn(C)n2)CCN1CCCC(F)(F)F (stereo not shown) [Example 68, 1-(4-fluorophenyl)-6-methyl-5-(4-((2-methyl-2H-1,2,3-triazol-4-yl)sulfonyl)-1-(4,4,4-trifluorobutyl)piperazin-2-yl)-1H-indazole]"
,6.74,"Cc1cc2c(cnn2-c2ccc(F)cc2)cc1C1CN(S(=O)(=O)c2cnn(C)n2)CCN1CC1(C#N)CC1 (stereo not shown) [Example 69, 1-((2-(1-(4-fluorophenyl)-6-methyl-1H-indazol-5-yl)-4-((2-methyl-2H-1,2,3-triazol-4-yl)sulfonyl)piperazin-1-yl)methyl)cyclopropane-1-carbonitrile]"
,6.77,"Cc1cc2c(cnn2-c2ccc(F)cc2)cc1C1CN(S(=O)(=O)c2cnn(C)n2)CCN1Cc1ccccn1 (stereo not shown) [Example 70, 1-(4-fluorophenyl)-6-methyl-5-(4-((2-methyl-2H-1,2,3-triazol-4-yl)sulfonyl)-1-(pyridin-2-ylmethyl)piperazin-2-yl)-1H-indazole]"
,6.80,"Cc1ccccc1CN1CCN(S(=O)(=O)c2cnn(C)n2)CC1c1cc2cnn(-c3ccc(F)cc3)c2cc1C (stereo not shown) [Example 71, 1-(4-fluorophenyl)-6-methyl-5-(4-((2-methyl-2H-1,2,3-triazol-4-yl)sulfonyl)-1-(2-methylbenzyl)piperazin-2-yl)-1H-indazole]"
,7.85,"Cc1cc2c(cnn2-c2ccc(F)cc2)cc1[C@@H]1CN(S(=O)(=O)c2cnn(C)n2)CCN1CCC(F)(F)F [Example 84, (R)-1-(4-fluorophenyl)-6-methyl-5-(4-((2-methyl-2H-1,2,3-triazol-4-yl)sulfonyl)-1-(3,3,3-trifluoropropyl)piperazin-2-yl)-1H-indazole]"
,6.74,"Cc1cc2c(cnn2-c2ccc(F)cc2)cc1C1CN(S(=O)(=O)c2cnn(C)n2)CCN1c1ccccc1 (stereo not shown) [Example 86, 1-(4-fluorophenyl)-6-methyl-5-(4-((2-methyl-2H-1,2,3-triazol-4-yl)sulfonyl)-1-phenylpiperazin-2-yl)-1H-indazole]"
,7.27,"Cc1cc2c(cnn2-c2ccc(F)cc2)cc1C1CN(S(=O)(=O)c2cnn(C)n2)CC(C)N1CC(C)C (stereo not shown) [Example 87, 1-(4-fluorophenyl)-5-(1-isobutyl-6-methyl-4-((2-methyl-2H-1,2,3-triazol-4-yl)sulfonyl)piperazin-2-yl)-6-methyl-1H-indazole]"
,7.46,"Cc1cc2c(cnn2-c2ccc(F)cc2)cc1C1C(C)N(S(=O)(=O)c2cnn(C)n2)CCN1CC(C)C (stereo not shown) [Example 88, 1-(4-fluorophenyl)-5-(1-isobutyl-3-methyl-4-((2-methyl-2H-1,2,3-triazol-4-yl)sulfonyl)piperazin-2-yl)-6-methyl-1H-indazole]"
,7.47,"Cc1cc2c(cnn2-c2ccc(F)cc2)cc1C1CN(S(=O)(=O)c2cnn(C)n2)C(C)CN1CC(C)C (stereo not shown) [Example 89, 1-(4-fluorophenyl)-5-(1-isobutyl-5-methyl-4-((2-methyl-2H-1,2,3-triazol-4-yl)sulfonyl)piperazin-2-yl)-6-methyl-1H-indazole]"
,6.92,"Cc1cc2c(cnn2-c2ccc(F)cc2)cc1C1C(=O)N(S(=O)(=O)c2cnn(C)n2)CCN1CC(C)C (stereo not shown) [Example 152, 3-(1-(4-fluorophenyl)-6-methyl-1H-indazol-5-yl)-4-isobutyl-1-((2-methyl-2H-1,2,3-triazol-4-yl)sulfonyl)piperazin-2-one]"
,6.42,"Cc1cc2c(cnn2-c2ccc(F)cc2)cc1C1CN(S(=O)(=O)c2cnn(C)n2)CC(=O)N1Cc1ccccc1 (stereo not shown) [Example 153, 1-benzyl-6-(1-(4-fluorophenyl)-6-methyl-1H-indazol-5-yl)-4-((2-methyl-2H-1,2,3-triazol-4-yl)sulfonyl)piperazin-2-one]"
,6.66,"CC(C)CN1CCN(S(=O)(=O)c2cnn(C)n2)CC1c1cc2cnn(-c3ccc(F)cc3)c2cc1F (stereo not shown) [Example 159, 6-fluoro-1-(4-fluorophenyl)-5-(1-isobutyl-4-((2-methyl-2H-1,2,3-triazol-4-yl)sulfonyl)piperazin-2-yl)-1H-indazole]"
,6.59,"Cc1cc2c(cnn2-c2ccc(F)cc2)cc1C1CN(S(=O)(=O)c2cnn(C)n2)CCN1CC(C)(C)O (stereo not shown) [Example 162, 1-(2-(1-(4-fluorophenyl)-6-methyl-1H-indazol-5-yl)-4-((2-methyl-2H-1,2,3-triazol-4-yl)sulfonyl)piperazin-1-yl)-2-methylpropan-2-ol]"
,6.77,"CC(C)CN1CCN(S(=O)(=O)c2cnn(C)n2)CC1c1cc2cnn(-c3ccc(F)cc3)c2cc1C(F)(F)F (stereo not shown) [Example 164, 1-(4-fluorophenyl)-5-(1-isobutyl-4-((2-methyl-2H-1,2,3-triazol-4-yl)sulfonyl)piperazin-2-yl)-6-(trifluoromethyl)-1H-indazole]"
,7.09,"Cc1cc2c(cnn2-c2ccc(=O)n(C)c2)cc1C1CN(S(=O)(=O)c2cnn(C)n2)CCN1CCC(F)(F)F (stereo not shown) [Example 165, 1-methyl-5-(6-methyl-5-(4-((2-methyl-2H-1,2,3-triazol-4-yl)sulfonyl)-1-(3,3,3-trifluoropropyl)piperazin-2-yl)-1H-indazol-1-yl)pyridin-2(1H)-one]"
,7.23,"Cc1cc2c(cnn2-c2cccnc2)cc1C1CN(S(=O)(=O)c2cnn(C)n2)CCN1CCC(F)(F)F (stereo not shown) [Example 167, 6-methyl-5-(4-((2-methyl-2H-1,2,3-triazol-4-yl)sulfonyl)-1-(3,3,3-trifluoropropyl)piperazin-2-yl)-1-(pyridin-3-yl)-1H-indazole]"
,7.00,"Cc1cc2c(cnn2-c2cnn(C)c2)cc1C1CN(S(=O)(=O)c2cnn(C)n2)CCN1CCC(F)(F)F (stereo not shown) [Example 168, 6-methyl-1-(1-methyl-1H-pyrazol-4-yl)-5-(4-((2-methyl-2H-1,2,3-triazol-4-yl)sulfonyl)-1-(3,3,3-trifluoropropyl)piperazin-2-yl)-1H-indazole]"
